In patent EP0133795B1 (THE McLEAN HOSPITAL CORPORATION, priority 1983, dated 1985):

Experiments:
[1] = system: general motor activity of mice; assay: General locomotor activity of mice (Stoelting electronic activity monitor); type: in vivo, Balb/c mice; details: Mus musculus, ip, 1 h; i.p.; 60-min general motor activity vs vehicle-injected and uninjected controls; 8 animals per dose
[2] = mouse, in vivo
[3] = n-Octanol/water partition coefficient; type: physicochemical; details: 5 ml n-octanol / 5 ml water, stirring 18 hours; read-out: KOW: Octanol/Water Partition Coefficient (converted)
Method: A Partition Coefficient was defined by the equation: [formula] representing the amount of the ester taken up per ml of n-octanol relative to the amount of the same compound taken up per ml of water.
The n-octanol/water partition coefficients were obtained from measurements of the distribution of 1, 3, 5 and 6 pmol quantities of each ^14C-labeled compound into a mixture of 5 ml of n-octanol and 5 ml water. At each concentration, the amount of labeled compound in the aqueous and n-octanol phases was calculated from the amount of radioactive material present after stirring for 18 hours.

[4] = system: general motor activity of mice; assay: General locomotor activity of mice (Stoelting electronic activity monitor); type: in vivo, Balb/c mice
Method: The effect of intraperitoneal (i.p.) injections of test compounds on the general motor activity of mice during a 60-min period was determined in a Stoelting electronic activity monitor. Dose-response curves were obtained from which the half-maximally effective values were calculated and the results are shown in Table V.
The compounds were dissolved in 25% (vols.) propylene glycol in water and injected i.p. into Balb/c mice (18-24 g). Dose-response measurements were obtained for 6 animals per dose or time point. Activity was monitored for 60 min using a Stoelting Electronic Activity Monitor (EAM) apparatus to assess the general motor activity of the animals.
The general locomotor activity of mice was measured in the Stolting activity monitor apparatus during 60 min after an intraperitoneal (i.p.) injection of a test compound.

[5] = Comparative brain/liver uptake of 14C-labeled compounds (Brain Penetration Index); details: for increase of 5-min BPI over GABA: 5 min after s.c. injection, relative to GABA
Method: The criterion used herein for measuring the extent to which a compound, from which the radical A is derived, crosses the blood-brain barrier is based on the uptake of this compound by the brain relative to its uptake by the liver. […] Measurements of the quantity of a compound present in brain and liver at 5 minutes after a subcutaneous (s.c.) injection were used to calculate a Brain Penetration Index (BPI), with the equation: [formula]
This is the amount of the compound present per gram of brain tissue as a percent of the amount per gram of liver tissue.
This procedure has the advantage that even for a sparingly soluble lipid ester, which tends to remain largely at the site of the injection and slowly diffuse into the circulation, its level in the liver will reflect the amount available rather than the initial dose injected.
The uptake of a ^14C-labeled compound into brain was compared with the uptake into liver of the same animal.
All determinations were carried out at 5 min after injection. The volumes of the injected doses into mice (body weight, 18-24 g) for the i.v., i.p., and s.c. doses were 0.15, 0.3 and 0.5 ml, respectively. […] Each tissue was homogenized in 8 ml of pyridine in a glass homogenizer.
Each labeled test compound was injected as a solution in 0.5 ml of saline (Compound 7) or in 25% propylene glycol in water (Compounds 1, 5, 6) subcutaneously (s.c.) into young adult Balb/c mice (18-24 g body weight). After 5 min (or longer) animals were sacrificed and the brain and liver removed, weighed and homogenized respectively in 8 ml and 10 ml of brain protein solvent (1 % (w/v) sodium dodecyl sulfate in 6 M urea and 19 mM EDTA, pH 7.4, 0.03 M phosphate). Aliquots (0.5 ml) of the homogenates were mixed with 10 ml of Aquasol 2 (New England Nuclear) and counted in a Beckman liquid scintillation counter. The total uptake of each compound per g brain and liver tissue was calculated. The proportion of uptake into brain as compared to liver (100%) of the same animal was designated as the Brain Penetration Index (BPI), expressed as a percentage typically at 5 min after injection.
Each of the ^14C-labeled Compounds 26, 28 and 30 were in 125 µl of the propylene glycol diluted with water up to 0.5 ml, and then injected subcutaneously into test Balb/c mice (20 ± 2 g weight). After 5 min the animals were sacrificed and the brain and liver were removed, weighed and homogenized in 8 ml and 10 ml of brain protein solvent, respectively. Next 0.5 ml aliquots were mixed with 10 ml of Aquasol 2 (New England Nuclear Corp., Boston, MA) and counted in a Beckman liquid scintillation counter. The data for the label in each tissue were used to calculate the total quantity of the compound present in brain and liver per gram of tissue. The ratio of the amount in brain as a percent of that present in liver at 5 min was taken as the Brain Penetration Index (BPI). Measurements at longer uptake times were also obtained to evaluate the accumulation of the compounds in the brain.

[6] = system: bicuculline-induced epileptic seizures; assay: Delay of onset of bicuculline-induced seizures (anticonvulsant activity); type: in vivo, mouse; details: for In Vivo Delay of Time of Onset of Bicuculline-induced seizures: graded 0-5
Method: In a second behavioral test, the ability of a substance to prevent or delay the onset of biculline-induced epileptic seizures was measured. […] At 24 hr after i.p. injection of the cholesteryl derivative at a dose of 30 mg/kg (64 pmol/kg), the onset of seizures was delayed by 30% after an acute i.p. injection of bicuculline at 0.3 mg/kg. […] The dexamethasone and butyl esters had no effect.
The compounds were also injected i.p. at 1, 6 and 24 hr before the administration of bicuculline (0.3 mg/kg) s.c. The latency to the onset of generalized tonic-clonic epileptic seizures and the protection against the lethality of bicuculline were measured and evaluated as a percent of the data for vehicle-injected controls. No significant changes were obtained at the 1 hr and 6 hr time points. At the 24 hr time, however, some compounds delayed while others accelerated the onset of seizures.
The effect of the compound to delay the onset of a bicuculline-induced seizures was evaluated.
The ability of a substance to delay the onset of bicuculline-induced epileptic seizures in the mouse was measured (Table X). […] At 24 hr after i.p. injection of the cholesteryl derivative (6) at a dose of 30 mg/kg (64 pmol/kg), the onset of seizures was delayed by 30% (as compared to saline controls) after an acute i.p. injection of bicuculline at 0.3 mg/kg. […] The dexamethasone and butyl esters had no effect on seizures in mice.

in vivo = details: mouse, brain, sc
[7] = 20 μmol/kg s.c., 60 min, Balb/c mice
[8] = 60 μmol/kg s.c., 240 min, Balb/c mice
[9] = 67 μmol/kg s.c., 5 min, Balb/c mice, mean ± S.E.M. (3 measurements)
[10] = 170 μmol/kg s.c., 60 min, Balb/c mice
[11] = Table IX summary, 5-min Brain Penetration Index
[12] = Table IV, 380 μmol/kg s.c., 5 min, mice, mean ± S.E.M. (n = 3)

CC/C=C\C/C=C\C/C=C\CCCCCCCC(=O)OCC(COC(=O)CCCN)OC(=O)CCCCCCC/C=C\C/C=C\C/C=C\CC (stereo not drawn) [Compound 28, 1,2-dilinolenoyl-3-(gamma-aminobutyroyl)propane-1,2,3-triol]
ED50 [1]: 43 µmol/kg | level present in the brain at ED50 [2]: 1.7 | logP at 18 h [3]: 0.82 | In Vivo Inhibition of General Motor Activity ([4]; graded 0-5): 4 | (BRAIN) [5, 7]: 1.4 nmol/g | (LIVER) [5, 7]: 3.1 nmol/g | BPI [5, 7]: 44% | (BRAIN) [5, 8]: 7.1 nmol/g | (LIVER) [5, 8]: 18.3 nmol/g | BPI [5, 8]: 39% | (BRAIN) [5, 9]: 5.9 ± 0.4 nmol/g | (LIVER) [5, 9]: 4.7 ± 0.4 nmol/g | BPI [5, 9]: 127±8.3% | (BRAIN) [5, 10]: 6.0 nmol/g | (LIVER) [5, 10]: 8.8 nmol/g | BPI [5, 10]: 68% | increase of 5-min BPI over GABA [5]: 127 fold | BPI [5, 11]: 127 | time at which liver levels reach a maximum ([5]; s.c., mice): 45 to 60 min | anticonvulsant properties ([6]; administered at doses of 30 mg/kg): only weak anticonvulsant properties | In Vivo Delay of Time of Onset of Bicuculline-induced seizures [6]: 5

CCCCOC(=O)CCCN [Compound 1, Butyl Ester of GABA]
remaining at 1 h (in vivo): 4% | activity in the general motor activity test (in words) ([4]; i.p., mice): not active | (BRAIN) ([5]; 380 μmol/kg s.c., 60 min, mice): 14.4 nmol/g | (LIVER) ([5]; 380 μmol/kg s.c., 60 min, mice): 13.7 nmol/g | BPI ([5]; 380 μmol/kg s.c., 60 min, mice): 105% | increase of 5-min BPI over GABA [5]: 74 fold | (BRAIN) [5, 12]: 19.2 ± 0.3 nmol/g | (LIVER) [5, 12]: 26.0 ± 1.6 nmol/g | BPI [5, 12]: 74 ± 3.4% | BPI [5, 11]: 74 | In Vivo Delay of Time of Onset of Bicuculline-induced seizures [6]: 1 | effect on bicuculline-induced seizures (in words) ([6]; mice): no effect
